Consider 28 compounds from patent publication US10519145B2, “Pyrazole-oxazolidinone compound for anti-hepatitis B virus” (Shanghai Zhimeng Biopharma Co., Ltd., priority 2016, dated 2019).

Where only a bound is given, the exact number is not on record here.

The test system of this test is HBV (HepG2.2.15 cells). The test can be described thus: Anti-HBV activity experiment in vitro (HepG2.2.15, HBV DNA in supernatant, qPCR). Format: cell-based. The following applies: Hepatitis B virus, HBV DNA in supernatant by qPCR, eighth day. The protocol: Compound Dilution: initial concentrations of all compounds used in the anti-HBV activity experiments in vitro were 1 μM, 3-fold diluted into 8 concentrations; initial concentrations of all compounds used in the cytotoxicity assay were 100 μM, 3-fold diluted into 8 concentrations; and the mother liquor of the compound was diluted with DMSO.
Anti-HBV Activity Experiment In Vitro: HepG2.2.15 cells (4×10^4 cells/well) were seeded in 96-well plates and cultured overnight at 37° C. in 5% CO2. The next day, fresh cultures containing compounds in different concentrations were added into the culture wells. On the fifth day, the old culture medium in the culture wells was aspirated and removed. Fresh medium containing compounds in different concentrations was added. On the eighth day, supernatants in the culture wells were collected and used to extract HBV DNA in the supernatant. qPCR assay was used to detect HBV DNA content in the HepG2.2.15 supernatant.
The data analysis and the percentage of inhibition calculation: the percentage of inhibition was calculated by using the following formula: Inhibition %=[(HBV amount in DMSO control−HBV amount in sample)/HBV amount in DMSO control]×100%.
On the technique in general: In qPCR the cycle at which signal appears reflects the starting amount.
In general, EC50 refers to the midpoint of the concentration-response curve. Compound `O=C1CO[C@@H](c2cn(-c3ccc(F)cc3)nc2-c2ccc(F)cc2)N1CCc1ccc2[nH]c(=O)[nH]c2c1` [example 15 S isomer, (S)-3-(2-(2-oxo-2,3-dihydro-1H-benzo[d]imidazol-5-yl)ethyl)-2-(1-(4-fluorophenyl)-3-(4-fluorophenyl)-1H-pyrazol-4-yl)-oxazolidin-4-one] had an EC50 above 1000 nM.
As to `O=C1Cc2cc(CCN3C(=O)CO[C@H]3c3cn(-c4ccc(Br)cc4)nc3-c3ccc(F)cc3)ccc2N1` [example 13 S isomer], the EC50 was above 1000 nM.
To `O=C1COC(c2cn(-c3ccc(Br)cc3)nc2-c2ccco2)N1CCc1ccc2[nH]c(=O)[nH]c2c1` (stereo not shown) [example 22, 2-(1-(4-bromophenyl)-3-(furan-2-yl)-1H-pyrazol-4-yl)-3-(2-(2-oxo-2,3-dihydro-1H-benzo[d]imidazol-5-yl)ethyl)oxazolidin-4-one] belongs 85.3 nM.
Compound `O=C1CO[C@H](c2cn(-c3ccc(Br)cc3)nc2-c2ccc(F)cc2)N1CCc1cc2[nH]c(=O)[nH]c2cc1F` [example 8 R isomer, (R)-2-(1-(4-bromophenyl)-3-(4-fluorophenyl)1H-pyrazol-4-yl)-3-(2-(6-fluoro-2-carbonyl-2,3-dihydro-1H-benzo[d]imidazol-5-yl)ethyl)oxazoline-4-one] returned a concentration for a half-maximal effect (EC50) of 15.5 nM.
In the case of `O=C1COC(c2cn(-c3ccc(Br)cc3)nc2-c2ccc(F)cc2)N1CCc1ccc2oc(=O)[nH]c2c1` (stereo not shown) [example 17], the half-maximal effective concentration (EC50) was 150 nM.
The compound `O=C1COC(c2cn(-c3ccc(Br)cc3)nc2-c2ccc(F)cc2)N1CCc1cc2nc[nH]c2cc1F` (stereo not shown) [example 7, 2-(1-(4-bromophenyl)-3-(4-fluorophenyl)1H-pyrazol-4-yl)-3-(2-(5-fluoro-1H-benzo[d]imidazol-6-yl)ethyl)oxazoline-4-one] registered an EC50 of 67.5 nM.
Compound `O=C1COC(c2cn(-c3ccc(Br)cc3)nc2-c2ccc(F)cc2)N1CCc1c(F)cc2[nH]nnc2c1F` (stereo not shown) [example 12, 2-(1-(4-bromophcnyl)-3-(4-fluorophenyl)-1H-pyrazol-4-yl)-3-(2-(5,7-difluoro-1H hydrogen-benzor[d][1,2,3]triazol-6-yl)ethyl)oxazoline-4-one] yielded an EC50 of 223 nM.
Turning to `COC(=O)Nc1nc2cc(CCN3C(=O)COC3c3cn(-c4ccc(Br)cc4)nc3-c3ccc(F)cc3)ccc2[nH]1` (stereo not shown) [example 23, Methyl (5-(2-(2-(I -(4-bromophenyl)-3-(4-fluorophenyl)-1H-pyrazol-4-yl)oxazoline-4-one-3-yl)ethyl)-1H-benzo[d]imidazol-2-yl)carbamate], the midpoint of the response, the EC50, lay at 127 nM.
On to `Nc1ccc(CCN2C(=O)COC2c2cn(-c3ccc(Br)cc3)nc2-c2ccc(F)cc2)cc1` (stereo not shown) [example 1 intermediate], for which the EC50 was 11.8 nM.
Compound `O=C1COC(c2cn(-c3ccc(Br)cc3)nc2-c2ccc(F)cc2)N1CCc1cc2[nH]c(=O)[nH]c2cc1F` (racemic) [example 8 racemate, 2-(1-(4-bromophenyl)-3-(4-fluorophenyl)11/-pyrazol-4-yl)-3-(2-(6-fluoro-2-carbonyl-2,3-dihydro-1H-benzo[d]imidazol-5-yl)ethyl)oxazoline-4-one] yielded an EC50 of 35.5 nM.
As to `O=C1COC(c2cn(-c3ccc(Br)cc3)nc2-c2ccsc2)N1CCc1ccc2[nH]c(=O)[nH]c2c1` (stereo not shown) [example 20, 2-(1-(4-bromophenyl)-3-(thiophene-3-yl)-1H-pyrazol-4-yl)-3-(2-(2-oxo-2,3-dihydro-1H-benzo[d]imidazol-5-yl)ethyl)oxazolidin-4-one], a half-maximal effect (EC50) was put at 20.9 nM.
With `O=C1COC(c2cn(-c3ccc(Br)cc3)nc2-c2ccoc2)N1CCc1ccc2[nH]c(=O)[nH]c2c1` (racemic) [example 21 racemate, 2-(1-(4-bromophenyl)-3-(furan-3-yl)-1H-pyrazol-4-yl)-3-(2-(2-oxo-2,3-dihydro-1H-benzo[d]imidazol-5-yl)ethyl)oxazolidin-4-one], a half-maximal effect (EC50) was put at 30.6 nM.
To `O=C1COC(c2cn(-c3ccc(Br)cc3)nc2-c2ccc(F)cc2)N1CCc1ccc2c(c1)C(F)(F)C(=O)N2` (stereo not shown) [example 14] belongs above 1000 nM; to `O=C1COC(c2cn(-c3ccc(Br)cc3)nc2-c2ccc(F)cc2)N1CCc1ccc2[nH]c(=S)[nH]c2c1` (stereo not shown) [example 5, 2-(1-(4-bromophenyl)-3-(4-fluorophenyl)-1H-pyrazol-4-yl)-3-(2-(2,3-dihydro-2-thio-1H-benzo[d]imidazol-5-yl)ethyl)oxazoline-4-one], 45.7 nM.
`O=C1CO[C@@H](c2cn(-c3ccc(Br)cc3)nc2-c2ccc(F)cc2)N1CCc1ccc2[nH]c(=O)[nH]c2c1` [example 3 S isomer, (S)-3-(2-(2-oxo-2,3-dihydro-1H-benzo[d]imidazol-5-yl)ethyl)-2-(1-(4-bromophenyl)-3-(4-fluorophenyl)-1H-pyrazol-4-yl)-oxazolidin-4-one] yielded an EC50 above 1000 nM.
For `O=C1CO[C@H](c2cn(-c3ccc(F)cc3)nc2-c2ccc(F)cc2)N1CCc1ccc2[nH]c(=O)[nH]c2c1` [example 15 R isomer, (R)-3-(2-(2-oxo-2,3-dihydro-1H-benzo[d]imidazol-5-yl)ethyl)-2-(1-(4-fluorophenyl)-3-(4-fluorophenyl)-1H-pyrazol-4-yl)-oxazolidin-4-one], the concentration giving a half-maximal response (EC50) is 44.5 nM.
For the compound `O=C1COC(c2cn(-c3ccc(Br)cc3)nc2-c2ccc(F)cc2)N1CCc1ccc2[nH]nnc2c1` (stereo not shown) [example 2, 3-(2-(1H-benzo[d][1,2,3]triazol-5-yl)ethyl)-2-(1-(4-bromophenyl)-3-(4-fluoropheny 1)-1H-pyrazol-4-yl)oxazoline-4-one], a half-maximal effect (EC50) was put at 68.8 nM.
`O=C1CO[C@H](c2cn(-c3ccc(Br)cc3)nc2-c2ccoc2)N1CCc1ccc2[nH]c(=O)[nH]c2c1` [example 21 R isomer, (R)-2-(1-(4-bromophenyl)-3-(furan-3-yl)-1H-pyrazol-4-yl)-3-(2-(2-oxo-2,3-dihydro-1H-benzo[d]imidazol-5-yl)ethyl)oxazolidin-4-one]: a half-maximal response (EC50) required 11 nM.
`O=C1CO[C@@H](c2cn(-c3ccc(Br)cc3)nc2-c2ccc(F)cc2)N1CCc1cc2[nH]c(=O)[nH]c2cc1F` [example 8 S isomer, (S)-2-(1-(4-bromophenyl)-3-(4-fluorophenyl)1H-pyrazol-4-yl)-3-(2-(6-fluoro-2-carbonyl-2,3-dihydro-1H-benzo[d]imidazol-5-yl)ethyl)oxazoline-4-one] returned an EC50 above 1000 nM.
`O=C1COC(c2cn(-c3ccc(Br)cc3)nc2-c2ccc(F)cc2)N1CCc1ccc2[nH]c(=O)sc2c1` (stereo not shown) [example 18, 2-(1-(4-bromophenyl)-3-(4-fluorophenyl)-1H-pyrazol-4-yl)-3-(2-(2-carbonyl-2,3-dihydrobenzo[d]thiazol-6-yl)ethyl)-4-carbonyl-oxazoline] registered an EC50 of 60.4 nM.
Compound `O=C1COC(c2cn(-c3ccc(Br)cc3)nc2-c2ccc(F)cc2)N1CCc1ccc2[nH]cnc2c1` (stereo not shown) [example 1, 3-(2-(1H-benzo[d]imidazol-5-yl)ethyl)-2-(1-(4-bromophenyl)-3-(4-fluorophenyl)-1 H-pyrazol-4-yl)oxazoline-4-one] gave a 50% effective concentration (EC50) of 50.3 nM.
Take `O=C1COC(c2cn(-c3ccc(Br)cc3)nc2-c2ccc(F)cc2)N1CCc1c(F)cc2[nH]c(=O)[nH]c2c1F` (stereo not shown) [example 11, 2-(1-(4-bromophenyl)-3-(4-fluorophenyl)1H-pyrazol-4-yl)-3-(2-(4,6-difluoro-2-carbonyl-2,3-dihydro-1H-benzo[d]imidazol-5-yl)ethyl)oxazoline-4-one]: the EC50 was 101 nM.
To `O=C1Cc2cc(CCN3C(=O)CO[C@@H]3c3cn(-c4ccc(Br)cc4)nc3-c3ccc(F)cc3)ccc2N1` [example 13 R isomer] belongs 14.4 nM; to `O=C1COC(c2cn(-c3ccc(Br)cc3)nc2-c2ccc(F)cc2)N1CCc1ccc2[nH]c(=O)oc2c1` (stereo not shown) [example 16, 6-(2-{2-[1-(4-bromo-phenyl)-3-(4-fluoro-phenyl)-1-hydro-pyrazol-4-yl]-4-carbonyl-oxazoline-3-yl}-ethyl)-3-hydro-2-carbonyl-benzoxazole], 80.3 nM; to `O=C1COC(c2cn(-c3ccc(Br)cc3)nc2-c2ccc(F)cc2)N1CCc1cc2nn[nH]c2cc1F` (stereo not shown) [example 9, 3-(2-(5-fluoro-1H-benzo[d][1,2,3]triazol-6-yl)ethyl)-2-(1-(4-bromophenyl)-3-(4-fluorophenyl)-1H-pyrazol-4-yl)oxazoline-4-one], 234 nM.
In the case of `N=c1[nH]c2ccc(CCN3C(=O)COC3c3cn(-c4ccc(Br)cc4)nc3-c3ccc(F)cc3)cc2[nH]1` (stereo not shown) [example 4, 3-(2-(2-amino-1H-benzo[d]imidazol-6-yl)ethyl)-2-(1-(4-bromophenyl)-3-(4-fluorophenyl)-1H-pyrazol-4-yl)oxazoline-4-one], the concentration for a half-maximal effect (EC50) was above 1000 nM.
`O=C1COC(c2cn(-c3ccc(Br)cc3)nc2-c2ccc(F)cc2)N1CCc1ccc2sc(=O)[nH]c2c1` (stereo not shown) [example 19, 2-(1-(4-bromophenyl)-3-(4-fluorophenyl)-1H-pyrazol-4-yl)-3-(2-(2-oxo-2,3-dihydrobenzo[d]thiazol-5-yl)ethyl)oxazoline-4-one] came in with an EC50 of 162 nM.
Take `O=C1COC(c2cn(-c3ccc(Br)cc3)nc2-c2ccc(F)cc2)N1CCc1c(F)cc2[nH]cnc2c1F` (stereo not shown) [example 10, 2-(1-(4-bromophenyl)-3-(4-fluorophenyl)1H-pyrazol-4-yl)-3-(2-(5,7-difluoro-1H-benzo[d]imidazol-6-yl)ethyl)oxazoline-4-one]: the EC50 stood at 134 nM.
